Data from the CheMixHub viscosity set.
± gives the uncertainty stated by the source.

Assay: xn = mol fraction of the nth substance listed

CS(C)=O + OCCO
viscosity (298.15 K, 100 kPa, x1 = 0.105): 12.96 ± 0.53 mPa·s | viscosity (298.15 K, 100 kPa, x1 = 0.1987): 10.61 ± 0.43 mPa·s | viscosity (298.15 K, 100 kPa, x1 = 0.2971): 8.58 ± 0.35 mPa·s | viscosity (298.15 K, 100 kPa, x1 = 0.3911): 6.94 ± 0.28 mPa·s | viscosity (298.15 K, 100 kPa, x1 = 0.5099): 5.28 ± 0.21 mPa·s | viscosity (298.15 K, 100 kPa, x1 = 0.5932): 4.45 ± 0.18 mPa·s | viscosity (298.15 K, 100 kPa, x1 = 0.702): 3.68 ± 0.15 mPa·s | viscosity (298.15 K, 100 kPa, x1 = 0.7931): 3.21 ± 0.13 mPa·s | viscosity (298.15 K, 100 kPa, x1 = 0.9003): 2.74 ± 0.11 mPa·s | viscosity (298.15 K, 101 kPa, x2 = 0.0621): 2.42 ± 0.1 mPa·s | viscosity (298.15 K, 101 kPa, x2 = 0.1227): 3.05 ± 0.13 mPa·s | viscosity (298.15 K, 101 kPa, x2 = 0.1819): 4.26 ± 0.18 mPa·s | viscosity (298.15 K, 101 kPa, x2 = 0.2394): 5.61 ± 0.23 mPa·s | viscosity (298.15 K, 101 kPa, x2 = 0.2958): 7.14 ± 0.29 mPa·s | viscosity (298.15 K, 101 kPa, x2 = 0.3504): 8.45 ± 0.35 mPa·s | viscosity (298.15 K, 101 kPa, x2 = 0.404): 9.69 ± 0.4 mPa·s | viscosity (298.15 K, 101 kPa, x2 = 0.4562): 10.8 ± 0.4 mPa·s | viscosity (298.15 K, 101 kPa, x2 = 0.5076): 11.7 ± 0.5 mPa·s | viscosity (298.15 K, 101 kPa, x2 = 0.5568): 12.6 ± 0.5 mPa·s | viscosity (298.15 K, 101 kPa, x2 = 0.6061): 13.3 ± 0.5 mPa·s | viscosity (298.15 K, 101 kPa, x2 = 0.6537): 14 ± 0.6 mPa·s | viscosity (298.15 K, 101 kPa, x2 = 0.7004): 14.6 ± 0.6 mPa·s | viscosity (298.15 K, 101 kPa, x2 = 0.7461): 15.1 ± 0.6 mPa·s | viscosity (298.15 K, 101 kPa, x2 = 0.7906): 15.5 ± 0.6 mPa·s | viscosity (298.15 K, 101 kPa, x2 = 0.8342): 16 ± 0.7 mPa·s | viscosity (298.15 K, 101 kPa, x2 = 0.8769): 16.5 ± 0.7 mPa·s | viscosity (298.15 K, 101 kPa, x2 = 0.9189): 16.9 ± 0.7 mPa·s | viscosity (298.15 K, 101 kPa, x2 = 0.9599): 17.3 ± 0.7 mPa·s | viscosity (303.15 K, 100 kPa, x1 = 0.105): 10.76 ± 0.44 mPa·s | viscosity (303.15 K, 100 kPa, x1 = 0.1987): 8.91 ± 0.36 mPa·s | viscosity (303.15 K, 100 kPa, x1 = 0.2971): 7.31 ± 0.3 mPa·s | viscosity (303.15 K, 100 kPa, x1 = 0.3911): 5.97 ± 0.24 mPa·s | viscosity (303.15 K, 100 kPa, x1 = 0.5099): 4.59 ± 0.19 mPa·s | viscosity (303.15 K, 100 kPa, x1 = 0.5932): 3.93 ± 0.16 mPa·s | viscosity (303.15 K, 100 kPa, x1 = 0.702): 3.26 ± 0.13 mPa·s | viscosity (303.15 K, 100 kPa, x1 = 0.7931): 2.86 ± 0.12 mPa·s | viscosity (303.15 K, 100 kPa, x1 = 0.9003): 2.46 ± 0.1 mPa·s | viscosity (303.15 K, 101 kPa, x2 = 0.0621): 2.19 ± 0.09 mPa·s | viscosity (303.15 K, 101 kPa, x2 = 0.1227): 2.66 ± 0.11 mPa·s | viscosity (303.15 K, 101 kPa, x2 = 0.1819): 3.66 ± 0.15 mPa·s | viscosity (303.15 K, 101 kPa, x2 = 0.2394): 4.72 ± 0.19 mPa·s | viscosity (303.15 K, 101 kPa, x2 = 0.2958): 5.91 ± 0.24 mPa·s | viscosity (303.15 K, 101 kPa, x2 = 0.3504): 7.01 ± 0.29 mPa·s | viscosity (303.15 K, 101 kPa, x2 = 0.404): 7.96 ± 0.33 mPa·s | viscosity (303.15 K, 101 kPa, x2 = 0.4562): 8.81 ± 0.36 mPa·s | viscosity (303.15 K, 101 kPa, x2 = 0.5076): 9.54 ± 0.39 mPa·s | viscosity (303.15 K, 101 kPa, x2 = 0.5568): 10.2 ± 0.4 mPa·s | viscosity (303.15 K, 101 kPa, x2 = 0.6061): 10.7 ± 0.4 mPa·s | viscosity (303.15 K, 101 kPa, x2 = 0.6537): 11.2 ± 0.5 mPa·s | viscosity (303.15 K, 101 kPa, x2 = 0.7004): 11.6 ± 0.5 mPa·s | viscosity (303.15 K, 101 kPa, x2 = 0.7461): 12 ± 0.5 mPa·s | viscosity (303.15 K, 101 kPa, x2 = 0.7906): 12.4 ± 0.5 mPa·s | viscosity (303.15 K, 101 kPa, x2 = 0.8342): 12.8 ± 0.5 mPa·s | viscosity (303.15 K, 101 kPa, x2 = 0.8769): 13.1 ± 0.5 mPa·s | viscosity (303.15 K, 101 kPa, x2 = 0.9189): 13.4 ± 0.5 mPa·s | viscosity (303.15 K, 101 kPa, x2 = 0.9599): 13.7 ± 0.6 mPa·s | viscosity (308.15 K, 100 kPa, x1 = 0.105): 8.98 ± 0.37 mPa·s | viscosity (308.15 K, 100 kPa, x1 = 0.1987): 7.45 ± 0.3 mPa·s | viscosity (308.15 K, 100 kPa, x1 = 0.2971): 6.14 ± 0.25 mPa·s | viscosity (308.15 K, 100 kPa, x1 = 0.3911): 5.09 ± 0.21 mPa·s | viscosity (308.15 K, 100 kPa, x1 = 0.5099): 4.03 ± 0.16 mPa·s | viscosity (308.15 K, 100 kPa, x1 = 0.5932): 3.46 ± 0.14 mPa·s | viscosity (308.15 K, 100 kPa, x1 = 0.702): 2.91 ± 0.12 mPa·s | viscosity (308.15 K, 100 kPa, x1 = 0.7931): 2.58 ± 0.11 mPa·s | viscosity (308.15 K, 100 kPa, x1 = 0.9003): 2.21 ± 0.09 mPa·s | viscosity (308.15 K, 101 kPa, x1 = 0.0799): 10.2 ± 0.2 mPa·s | viscosity (308.15 K, 101 kPa, x1 = 0.206): 9.506 ± 0.19 mPa·s | viscosity (308.15 K, 101 kPa, x1 = 0.3426): 8.715 ± 0.17 mPa·s | viscosity (308.15 K, 101 kPa, x1 = 0.4387): 8.143 ± 0.16 mPa·s | viscosity (308.15 K, 101 kPa, x1 = 0.5397): 7.399 ± 0.15 mPa·s | viscosity (308.15 K, 101 kPa, x1 = 0.6459): 6.235 ± 0.13 mPa·s | viscosity (308.15 K, 101 kPa, x1 = 0.7517): 4.953 ± 0.1 mPa·s | viscosity (308.15 K, 101 kPa, x1 = 0.8456): 3.731 ± 0.078 mPa·s | viscosity (308.15 K, 101 kPa, x1 = 0.9271): 2.599 ± 0.055 mPa·s | viscosity (308.15 K, 101 kPa, x2 = 0.0621): 1.98 ± 0.08 mPa·s | viscosity (308.15 K, 101 kPa, x2 = 0.1227): 2.43 ± 0.1 mPa·s | viscosity (308.15 K, 101 kPa, x2 = 0.1819): 3.21 ± 0.13 mPa·s | viscosity (308.15 K, 101 kPa, x2 = 0.2394): 4.02 ± 0.17 mPa·s | viscosity (308.15 K, 101 kPa, x2 = 0.2958): 4.88 ± 0.2 mPa·s | viscosity (308.15 K, 101 kPa, x2 = 0.3504): 5.72 ± 0.24 mPa·s | viscosity (308.15 K, 101 kPa, x2 = 0.404): 6.43 ± 0.26 mPa·s
